Source: article PMC9154192 (PLoS Biology, 2022)
Several values for one entry are separate records, joined by “and”; a condition that tells them apart may be missing. Identical values can stand only once. Like-named read-outs stand apart in the source and are kept apart here.

Assays:
intestinal microbiome = experiment: Gut microbiome, 16s rRNA gene-based metagenomics analysis of feces; format: in vivo, BALB/c mice; settings: 30 mg/kg oral once a day for 7 days, BALB/c mice, feces
Procedure: Six-week-old BALB/c female mice were used for this study (6 mice for each group). Each drug was administered orally at 30 mg/kg once daily for 7 days. Stool was collected, and 16 rRNA gene-based metagenomics analysis was performed. Corn oil was used as the vehicle. The drug-free group received corn oil only. This animal experiment was conducted with the approval of the IACUC of the Soonchunhyang University (approval number: SCH21-0011). Microbiome analysis of collected feces was carried out as previously described with some modifications. Total DNA was extracted from the stool using the QIAamp DNA stool mini kit (Qiagen, Germany) after mechanical disruption using lysing matrix B tubes (MP Biomedicals, USA). V4 region of 16S RNA gene was amplified from extracted DNA with the following primers: forward primer ([…]) and reverse primer ([…]). PCR was performed using the Kappa HiFi hot start kit (KAPA Biosystems, USA) for 16s gene amplification and library preparation. A dsDNA HS assay kit and Qubit 4 fluorimeter (Invitrogen, USA) were used for DNA quantification. After each step, quality was checked using Agilent High Sensitivity DNA Kit and Agilent Bioanalyzer 2100 (Agilent Technologies, USA). Clean-up was performed using AMPure XP beads (Beckman Coulter, UK). The metagenomic library was prepared using a Nextera XT DNA Library Prep Kit (Illumina, USA) and loaded into an iSeq-100 reagent cartridge (Illumina, USA) together with a PhiX Control library (Illumina, USA). A 300-bp paired-end sequencing was performed on an iSeq-100 platform (Illumina, USA). Sequencing data were analyzed using the EzBioCloud server (Chunlab, Korea).

XDR M. tuberculosis [1] = experiment: Luminescence-based microbial cell viability assay; parameters: species or system Mycobacterium tuberculosis
XDR M. tuberculosis [2] = format: cell-based, Mycobacterium tuberculosis
[3] = Acute oral toxicity test in mice; format: in vivo, BALB/c mice; settings: single oral, 5 mice; for Deaths of mice, Days after dosing 0: day 0; for Deaths of mice, Days after dosing 1: day 1; for Deaths of mice, Days after dosing 2: day 2; for Deaths of mice, Days after dosing 3: day 3; for Deaths of mice, Days after dosing 4: day 4; for Deaths of mice, Days after dosing 5: day 5; for Deaths of mice, Days after dosing 6: day 6; for Deaths of mice, Days after dosing 7: day 7; for Deaths of mice, Days after dosing 8: day 8; for Deaths of mice, Days after dosing 9: day 9; for Deaths of mice, Days after dosing 10: day 10; for Deaths of mice, Days after dosing 11: day 11; for Deaths of mice, Days after dosing 12: day 12; for Deaths of mice, Days after dosing 13: day 13; for Deaths of mice, Days after dosing 14: day 14
Procedure: This experiment was conducted in a toxicity test at Soonchunhyang University's Animal Biological Safety Level 2 (ABSL-2) facility. The study protocol was reviewed and approved by Soonchunhyang University Animal Ethics Committee. Six-week-old female BALB/c were purchased from Koatech (Pyeongtaek, Korea) and five mice per group were tested. Drugs were orally administered once using a zonde and observed for two weeks. Corn oil (Sigma, USA) was used as the vehicle.

M. tuberculosis H37Rv = format: cell-based, Mycobacterium tuberculosis; settings: for RFU/200 μl (replicates1-3), single values / RFU/ml (×104) / RFU/200 μl (average): Fig 2A
[4] = format: in vivo, Crl:CD SD rats; settings: single oral dose up to 2,000 mg/kg, SD rats, 2 weeks
Procedure: Toxicity studies were conducted at Biotoxtech (Korea) under review and approval from IACUC (170842, 180144, 170889) of Biotoxtech. All animals used in the toxicity test were purchased from OrientBio (Korea).
For acute toxicity study with a single oral administration, 6-week-old Crl:CD SD rats were used. For PP1S, a total of 8 groups (n = 4 rats/group) were used (0, 500, 1,000, and 2,000 mg/kg for females and males, respectively). For PP2S, a total of 4 groups (n = 5 rats/group) were used (0 and 2,000 mg/kg for females and males, respectively). […] Corn oil (Sigma, USA) was used as the vehicle. Control animals were treated only with the same volume of the vehicle.

For `CCCCOc1ccc2cc(CN3C(=O)CC[C@H]3C(=O)OC)c3cc(OC)c(OC)cc3c2c1` [PP2S, Methyl (S)-1-((3-butoxy-6,7-dimethoxyphenanthren-9-yl)methyl)-5-oxopyrrolidine-2-carboxylate], the “beta set-significance analysis, pair-wise comparison of gut microbiome” value (intestinal microbiome) was “not significant”, the “difference in phylum or class level taxa compared to drug-free group” value (intestinal microbiome) was “did not significantly differ” and the “phylogenetic diversity compared to drug-free control group” value (intestinal microbiome) was “no significant change”. For the same molecule, the “RLU/50ul (replicates1-3), single values” (XDR M. tuberculosis [1]) was 50 RLU/50ul and 140 RLU/50ul and 80 RLU/50ul and 90 RLU/50ul (2×) and 120 RLU/50ul and 70 RLU/50ul and 130 RLU/50ul and 40 RLU/50ul and 260 RLU/50ul and 290 RLU/50ul and 430 RLU/50ul and 420 RLU/50ul and 460 RLU/50ul and 330 RLU/50ul and 390 RLU/50ul and 410 RLU/50ul and 220 RLU/50ul and 640 RLU/50ul and 720 RLU/50ul and 540 RLU/50ul and 550 RLU/50ul and 580 RLU/50ul and 450 RLU/50ul (2×) and 590 RLU/50ul and 630 RLU/50ul, the “concentration with significant antitubercular effect” value (XDR M. tuberculosis [1]) was 0.39 µg/mL and the “growth of M. tuberculosis in macrophages (CFU)” value (XDR M. tuberculosis [2]) was “significantly inhibited the growth”. For the same molecule, the “Deaths of mice, Days after dosing 0” value ([3]; Dose 500 mg/kg) was 0, the “Deaths of mice, Days after dosing 1” value ([3]; Dose 500 mg/kg) was 0 and the “Deaths of mice, Days after dosing 2” value ([3]; Dose 500 mg/kg) was 0. For the same molecule, the “Deaths of mice, Days after dosing 3” value ([3]; Dose 500 mg/kg) was 0, the “Deaths of mice, Days after dosing 4” value ([3]; Dose 500 mg/kg) was 0 and the “Deaths of mice, Days after dosing 5” value ([3]; Dose 500 mg/kg) was 0. The “Deaths of mice, Days after dosing 6” value ([3]; Dose 500 mg/kg) was 0, the “Deaths of mice, Days after dosing 7” value ([3]; Dose 500 mg/kg) was 0 and the “Deaths of mice, Days after dosing 8” value ([3]; Dose 500 mg/kg) was 0. For the same molecule, the “Deaths of mice, Days after dosing 9” value ([3]; Dose 500 mg/kg) was 0, the “Deaths of mice, Days after dosing 10” value ([3]; Dose 500 mg/kg) was 0 and the “Deaths of mice, Days after dosing 11” value ([3]; Dose 500 mg/kg) was 0. For the same molecule, the “Deaths of mice, Days after dosing 12” value ([3]; Dose 500 mg/kg) was 0, the “Deaths of mice, Days after dosing 13” value ([3]; Dose 500 mg/kg) was 0 and the “Deaths of mice, Days after dosing 14” value ([3]; Dose 500 mg/kg) was 0. The “Deaths of mice, Days after dosing 0” value ([3]; Dose 1000 mg/kg) was 0, the “Deaths of mice, Days after dosing 1” value ([3]; Dose 1000 mg/kg) was 0 and the “Deaths of mice, Days after dosing 2” value ([3]; Dose 1000 mg/kg) was 0. The “Deaths of mice, Days after dosing 3” value ([3]; Dose 1000 mg/kg) was 0, the “Deaths of mice, Days after dosing 4” value ([3]; Dose 1000 mg/kg) was 0 and the “Deaths of mice, Days after dosing 5” value ([3]; Dose 1000 mg/kg) was 0. For the same molecule, the “Deaths of mice, Days after dosing 6” value ([3]; Dose 1000 mg/kg) was 0, the “Deaths of mice, Days after dosing 7” value ([3]; Dose 1000 mg/kg) was 0 and the “Deaths of mice, Days after dosing 8” value ([3]; Dose 1000 mg/kg) was 0. The “Deaths of mice, Days after dosing 9” value ([3]; Dose 1000 mg/kg) was 0, the “Deaths of mice, Days after dosing 10” value ([3]; Dose 1000 mg/kg) was 0 and the “Deaths of mice, Days after dosing 11” value ([3]; Dose 1000 mg/kg) was 0. For the same molecule, the “Deaths of mice, Days after dosing 12” value ([3]; Dose 1000 mg/kg) was 0, the “Deaths of mice, Days after dosing 13” value ([3]; Dose 1000 mg/kg) was 0 and the “Deaths of mice, Days after dosing 14” value ([3]; Dose 1000 mg/kg) was 0. The “Deaths of mice, Days after dosing 0” value ([3]; Dose 2000 mg/kg) was 0, the “Deaths of mice, Days after dosing 1” value ([3]; Dose 2000 mg/kg) was 0 and the “Deaths of mice, Days after dosing 2” value ([3]; Dose 2000 mg/kg) was 0. For the same molecule, the “Deaths of mice, Days after dosing 3” value ([3]; Dose 2000 mg/kg) was 0, the “Deaths of mice, Days after dosing 4” value ([3]; Dose 2000 mg/kg) was 0 and the “Deaths of mice, Days after dosing 5” value ([3]; Dose 2000 mg/kg) was 0. The “Deaths of mice, Days after dosing 6” value ([3]; Dose 2000 mg/kg) was 0, the “Deaths of mice, Days after dosing 7” value ([3]; Dose 2000 mg/kg) was 0 and the “Deaths of mice, Days after dosing 8” value ([3]; Dose 2000 mg/kg) was 0. For the same molecule, the “Deaths of mice, Days after dosing 9” value ([3]; Dose 2000 mg/kg) was 0, the “Deaths of mice, Days after dosing 10” value ([3]; Dose 2000 mg/kg) was 0 and the “Deaths of mice, Days after dosing 11” value ([3]; Dose 2000 mg/kg) was 0. For the same molecule, the “Deaths of mice, Days after dosing 12” value ([3]; Dose 2000 mg/kg) was 0, the “Deaths of mice, Days after dosing 13” value ([3]; Dose 2000 mg/kg) was 0 and the “Deaths of mice, Days after dosing 14” value ([3]; Dose 2000 mg/kg) was 0. The “RFU/200 μl (replicates1-3), single values” (shortened to “RFU/200 μl … single values”) (M. tuberculosis H37Rv; drug conc. 0.39) was 54850 RFU/200 μl and 54820 RFU/200 μl and 52200 RFU/200 μl and 52110 RFU/200 μl and 58720 RFU/200 μl and 54260 RFU/200 μl and 54210 RFU/200 μl and 54470 RFU/200 μl and 54870 RFU/200 μl, the “RFU/ml (×104)” value (M. tuberculosis H37Rv; drug conc. 0.39) was 27.3 RFU/ml (×104) and the “RFU/200 μl (average)” value (M. tuberculosis H37Rv; drug conc. 0.39, average of each replicate set) was 54343 RFU/200 μl and 54313 RFU/200 μl and 54847 RFU/200 μl. The “RFU/200 μl … single values” (M. tuberculosis H37Rv; drug conc. 0.78) was 20330 RFU/200 μl and 20390 RFU/200 μl and 21500 RFU/200 μl and 21380 RFU/200 μl and 21640 RFU/200 μl and 20670 RFU/200 μl and 20960 RFU/200 μl and 20360 RFU/200 μl and 20370 RFU/200 μl, the “RFU/ml (×104)” value (M. tuberculosis H37Rv; drug conc. 0.78) was 10.4 RFU/ml (×104) and the “RFU/200 μl (average)” value (M. tuberculosis H37Rv; drug conc. 0.78, average of each replicate set) was 21507 RFU/200 μl and 20663 RFU/200 μl and 20363 RFU/200 μl. For the same molecule, the “RFU/200 μl … single values” (M. tuberculosis H37Rv; drug conc. 1.56) was 8330 RFU/200 μl (2×) and 8470 RFU/200 μl and 8750 RFU/200 μl and 8670 RFU/200 μl and 8690 RFU/200 μl and 8240 RFU/200 μl and 8320 RFU/200 μl and 8390 RFU/200 μl, the “RFU/ml (×104)” value (M. tuberculosis H37Rv; drug conc. 1.56) was 4.2 RFU/ml (×104) and the “RFU/200 μl (average)” value (M. tuberculosis H37Rv; drug conc. 1.56, average of each replicate set) was 8703 RFU/200 μl and 8297 RFU/200 μl and 8397 RFU/200 μl. The “concentration with significant antitubercular effect” value (M. tuberculosis H37Rv; fluorescence-based assay) was 1.56 µg/mL and 0.78 µg/mL, the “change in body weight compared to control group” value [4] was “no significant change” and the “clinical symptoms and death” value [4] was “not observed”.
